Values after ≈ are worked out from the molar mass of the structure shown.

The experiment deals with HeLa cells. Kind of experiment: Inhibitory effects of compounds on HeLa cell proliferation in vitro (96 h). The class given is cell-based. The note with it: Homo sapiens, exponentially growing, concentration at 50% inhibition of cell growth. Here is the method:
INHIBITORY EFFECTS OF COMPOUNDS ON HeLa CELL PROLIFERATION The inhibitory effect of various compounds of formula (1) on HeLa cell proliferation invitro was determined according to the method described by Sunkara et al. [J. Natl. Cancer Instit. 70, 505-509 (1983)]. Exponentially growing HeLa cells were incubated in the presence or absence of various concentrations of test compounds for 96 hours. IC50 values were calculated which represent the test compound concentration at 50% inhibition of cell growth.
As a reminder, the IC50 is the concentration needed to halve the response being measured. Consider `Nc1ncnc2c1ncn2CC/C(=C\F)CO` [Compound A, (E)-4-(Adenin-9-yl)-2-hydroxymethyl-1-fluorobut-1-ene], for which 0.25 µg/mL (≈ 1.05 µM) corresponded to half-maximal inhibition (IC50).

Compound `C=C(CO)CCn1cnc2c(N)ncnc21` [Compound C, 4-(Adenin-9-yl)-2-hydroxymethylbut-1-ene] returned an IC50 of 0.6 µg/mL (≈ 2.74 µM).

The compound `Nc1ncnc2c1ncn2CC/C(=C/F)CO` [Compound B, (Z)-4-(Adenin-9-yl)-2-hydroxymethyl-1-fluorobut-1-ene] came in with an IC50 of 1 µg/mL (≈ 4.22 µM).
